From patent publication US20240180872A1, “METHODS AND COMPOUNDS OF CANNABIDIOL, MELATONIN AND AKBA FOR TREATING PANCREATIC CANCER” (priority 2021, published 2024)

Tested on: pancreatic adenocarcinoma associated genes
Test: TaqMan Array gene expression in MIAPaCa-2, normalized for GAPDH
Format: cell-based, Human
Conditions: Mia-PACA-2, 24 hs, CBD 3.8, MLT 200, AKBA 7.5 micrograms/ml
Method: Total RNA from untreated or CBD, MLT, AKBA alone and in combination treated cell lines was extracted using Rneasy Mini kit (Qiagen, Milan, Italy). One microgram of total RNA from each sample was subjected to reverse transcription in a total volume of 20 μL using the High-Capacity cDNA Archive Kit (Applied Biosystem, Foster City, […], USA) according to the instructions. cDNAs were analyzed by qRT-PCR performed using an IQ5 Multicolor Real time PCR Detection system. Quantitative real-time gene expression was performed with the TaqMan® Array Human Pancreatic Adenocarcinoma 96-well Plate, containing 92 assays to pancreatic adenocarcinoma associated genes and 4 assays to candidate endogenous control genes, was purchased (Thermo Fisher, Grand Island, NY, USA) and used to evaluate the treatments in modulating PDAC-related genes (Table 1). Measurement of different housekeeping genes (GAPDH; HPRT1; GUSB) on the samples was used to normalize mRNA content. The gene expression levels of treated cell lines were expressed as relative fold compared with untreated or vehicle-treated cells.
To elucidate the molecular events induced by CBD, MLT and AKBA alone and in combination, 92 genes involved in PDAC progression and aggressiveness were evaluated by Taqman Array. Both cell lines were treated with CBD, MLT and AKBA alone and in combination, and the molecular pathways of PDAC associated gene were evaluated.
Target mRNA levels were normalized for GAPDH expression.

[1] = normalized for GAPDH, Akt pathways
[2] = normalized for GAPDH, Akt-pathways
[3] = normalized for GAPDH, DNA repair
[4] = normalized for GAPDH, NfkB pathways
[5] = normalized for GAPDH, Ras pathways
[6] = normalized for GAPDH, TGF patways
[7] = normalized for GAPDH, TGF-patways
[8] = normalized for GAPDH, angiogenesis
[9] = normalized for GAPDH, apoptosis
[10] = normalized for GAPDH, cell cycle
[11] = normalized for GAPDH, inflammation
[12] = normalized for GAPDH, proliferation

C=C(C)[C@@H]1CCC(C)=C[C@H]1c1c(O)cc(CCCCC)cc1O [CBD, 2-[(1R,6R)-3-methyl-6-prop-1-en-2-ylcyclohex-2-en-1-yl]-5-pentylbenzene-1,3-diol]
GAPDH relative expression (GAPDH is the normalizer): 1.00
PK3CB relative expression [1]: 0.10
PK3CD relative expression [1]: 0.08
AKT1 relative expression [2]: 0.10
AKT2 relative expression [2]: 0.54
AKT3 relative expression [2]: 0.00
IGF1 relative expression [2]: 0.00
PK3CA relative expression [2]: 0.03
PK3R1 relative expression [2]: 0.04
BRCA2 relative expression [3]: 0.16
MDM2 relative expression [3]: 0.04
TP53 relative expression [3]: 0.22
HSP90AA1 relative expression (normalized for GAPDH, Heat sock protein): 0.42
NFKB1 relative expression [4]: 0.04
NFKB2 relative expression [4]: 0.15
REL relative expression [4]: 0.11
RELA relative expression [4]: 0.06
RELB relative expression [4]: 0.26
RHOA relative expression [4]: 0.34
RHOB relative expression [4]: 0.04
BRAF relative expression [5]: 0.22
E2F1 relative expression [5]: 0.15
E2F3 relative expression [5]: 0.08
E2F4 relative expression [5]: 0.19
EGF relative expression [5]: 0.00
EGFR relative expression [5]: 0.21
ELK1 relative expression [5]: 0.09
ERBB2 relative expression [5]: 0.02
GRB2 relative expression [5]: 0.13
HBEGF relative expression [5]: 0.13
KRAS relative expression [5]: 0.09
MAP2K1 relative expression [5]: 0.00
MAP2K2 relative expression [5]: 0.08
MAPK1 relative expression [5]: 0.07
MAPK3 relative expression [5]: 0.01
RAF1 relative expression [5]: 0.01
RB1 relative expression [5]: 0.06
SOS1 relative expression [5]: 0.06
TGFB2 relative expression [6]: 0.08
TGFB3 relative expression [6]: 0.00
TGFBR1 relative expression [6]: 0.02
SMAD2 relative expression [7]: 0.06
SMAD3 relative expression [7]: 0.18
SMAD4 relative expression [7]: 0.07
TGFA relative expression [7]: 0.64
TGFB1 relative expression [7]: 0.06
TGFBR2 relative expression [7]: 0.00
FIGF relative expression [8]: 0.11
VEGFA relative expression [8]: 0.02
VEGFB relative expression [8]: 0.06
VEGFC relative expression [8]: 0.03
BCL2L1 relative expression [9]: 0.26
BCL2 relative expression [9]: 0.00
BIRC5 relative expression [9]: 0.11
CCNA2 relative expression [10]: 0.01
CCNB1 relative expression [10]: 0.37
CCND1 relative expression [10]: 0.11
CCND2 relative expression [10]: 0.00
CCNE1 relative expression [10]: 0.10
CCNE2 relative expression [10]: 0.12
CDC42 relative expression [10]: 0.05
CDK2 relative expression [10]: 0.15
CDK4 relative expression [10]: 0.25
CDKN1A relative expression [10]: 0.04
CDKN1B relative expression [10]: 0.11
CDKN2A relative expression [10]: 0.26
CDKN2B relative expression [10]: 0.42
CDKN2C relative expression [10]: 0.03
CDKN2D relative expression [10]: 0.04
IL6 relative expression [11]: 0.00
JAK1 relative expression [11]: 0.27
JAK2 relative expression [11]: 0.01
JAK3 relative expression [11]: 0.01
STAT1 relative expression [11]: 0.11
STAT2 relative expression [11]: 0.04
STAT3 relative expression [11]: 0.06
STAT6 relative expression [11]: 0.79
STATSB relative expression [11]: 0.03
MMP1 relative expression (normalized for GAPDH, invasion): 0.00
MMP2 relative expression (normalized for GAPDH, invasion): 0.07
MMP3 relative expression (normalized for GAPDH, invasion): 0.00
MMP7 relative expression (normalized for GAPDH, invasion): 0.01
MMP9 relative expression (normalized for GAPDH, invasion): 0.01
PTGS2 relative expression (normalized for GAPDH, invasion): 0.00
RAC1 relative expression (normalized for GAPDH, invasion): 0.11
RAC2 relative expression (normalized for GAPDH, invasion): 0.01
KIT relative expression [12]: 0.00
NOTCH1 relative expression [12]: 0.02
SRC relative expression [12]: 0.03
